Test results published in patent publication US8962648B2, “Tricyclic compounds and PBK inhibitors containing the same” (OncoTherapy Science, Inc., priority 2010, dated 2015).
pIC50: −log10 of the molar value. Structures can show the parent of a compound that is named as a salt. Where two headings read alike, the source gives them in different places.

Columns and labels:
[1] = molecular target: PBK (Homo sapiens (Human), UniProt Q96KB5); assay: Kinase assay (IMAP fluorescence polarization, FITC-labeled histone H3 peptide); type: biochemical
Description: PBK activity was determined in the presence or absence of compounds using fluorescein isothiocyanate-labeled (FITC-labeled) histone H3 peptide as a substrate. […] The serially diluted compounds, 0.8 ng/micro-L PBK (Carna Biosciences) and 100 nM FITC-labeled histone H3 peptide were reacted in a reaction buffer (20 mM HEPES, 0.01% Tween-20, 0.3 mM MgCl2, 2 mM dithiothreitol, 50 micro-M ATP, pH 7.4) at room temperature for 1 hour. The reaction was stopped by the addition of three fold assay volume of progressive binding solution. […] IC50 values were calculated by nonlinear four parameter fit using SigmaPlot, version 10.0 (Systat Software, Inc.).

[2] = system: A549 cells; assay: Cell-based assay, cellular growth (Cell Counting Kit-8, 72 hours); conditions: Homo sapiens, A549, 72 h
Description: (§1) 100 micro-L of cell suspension was seeded onto 96-well microtiter plate (ViewPlate-96FTC, PerkinElmer). […] Cellular growth was determined using Cell Counting Kit-8 (DOJINDO) at 72 hours after the exposure of the candidate inhibitors. […] Accurate IC50 values were calculated as described previously.

[3] = system: BT-549 cells; assay: as above; conditions: Homo sapiens, BT549 cells
Description: as §1

[4] = system: T47D cells; assay: as above; conditions: Homo sapiens, T47D, 72 h
Description: as §1

[5] = system: HT-1197 cells; assay: Cell-based assay, cellular growth (Cell Counting Kit-8, 72 hours), PBK-negative control cells; conditions: Homo sapiens, HT1197, 72 h
Description: as §1

[6] = PBK 0.8 ng/micro-L, 50 micro-M ATP, 100 nM FITC-labeled histone H3 peptide, room temperature 1 hour

Sequence of PBK (Q96KB5 whole entry): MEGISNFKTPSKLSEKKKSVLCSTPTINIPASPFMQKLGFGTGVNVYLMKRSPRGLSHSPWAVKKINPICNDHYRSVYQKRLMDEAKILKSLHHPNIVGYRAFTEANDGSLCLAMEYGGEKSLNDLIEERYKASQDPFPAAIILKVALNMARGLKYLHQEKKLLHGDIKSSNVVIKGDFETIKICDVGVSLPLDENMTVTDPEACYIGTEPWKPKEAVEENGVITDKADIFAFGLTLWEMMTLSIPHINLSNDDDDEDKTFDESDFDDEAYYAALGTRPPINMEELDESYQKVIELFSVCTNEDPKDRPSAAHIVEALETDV

Compound | pIC50 [1, 6] | pIC50 [2] | pIC50 [3] | pIC50 [4] | pIC50 [5] | pIC50 [1]
Cc1cc(O)c(-c2ccc(C(C)CN)c(F)c2)c2c1[nH]c(=O)c1sccc12 (stereo not drawn) [Compound 1190, 9-(4-(1-aminopropan-2-yl)-3-fluorophenyl)-8-hydroxy-6-methylthieno[2,3-c]quinolin-4(5H)-one hydrochloride] | 8.29 | 7.68 | 7.82 | 7.72 | 6.96 | 
Cc1cc(O)c(-c2ccc(CCN)cc2)c2c1[nH]c(=O)c1sccc12 [Compound 1191, 9-(4-(2-aminoethyl)phenyl)-8-hydroxy-6-methylthieno[2,3-c]quinolin-4(5H)-one hydrochloride] | 7.72 | 6.92 | 7.19 | 7.14 | 6.32 | 
Cc1cc(O)c(-c2ccc(C(C)CN(C)C)c(F)c2)c2c1[nH]c(=O)c1sccc12 (stereo not drawn) [Compound 1193, 9-(4-(1-(dimethylamino)propan-2-yl)-3-fluorophenyl)-8-hydroxy-6-methylthieno[2,3-c]quinolin-4(5H)-one hydrochloride] |  | 6.89 | 6.85 | 6.62 | 6.48 | 7.34
COc1cc(Cl)c2[nH]c(=O)c3sccc3c2c1-c1ccc([C@@H](C)CN)cc1 [Compound 1201, (R)-9-(4-(1-aminopropan-2-yl)phenyl)-6-chloro-8-methoxythieno[2,3-c]quinolin-4(5H)-one hydrochloride] | 7.70 | 7.34 | 7.28 | 6.92 | 6.85 | 
CC(CCl)NS(=O)(=O)c1ccc(-c2c(O)ccc3[nH]c(=O)c4sccc4c23)cc1 (stereo not drawn) [Compound 1204, N-(1-chloropropan-2-yl)-4-(8-hydroxy-4-oxo-4,5-dihydrothieno[2,3-c]quinolin-9-yl)benzenesulfonamide] | 7.82 | 6.15 | 6.80 | 5.72 | 4.82 | 
NCCc1ccc(-c2c(O)cc(Br)c3[nH]c(=O)c4sccc4c23)cc1F [Compound 1213, 9-(4-(2-aminoethyl)-3-fluorophenyl)-6-bromo-8-hydroxythieno[2,3-c]quinolin-4(5H)-one hydrochloride] | 7.72 | 6.44 | 6.64 | 6.42 | 5.77 | 
COc1cc(C)c2[nH]c(=O)c3sccc3c2c1-c1ccc(CCN)c(F)c1 [Compound 1216, 9-(4-(2-aminoethyl)-3-fluorophenyl)-8-methoxy-6-methylthieno[2,3-c]quinolin-4(5H)-one hydrochloride] | 7.24 | 6.55 | 6.68 | 6.34 | 6.19 | 
Cc1cc(O)c(-c2ccc(CCN)c(F)c2)c2c1[nH]c(=O)c1sccc12 [Compound 1217, 9-(4-(2-aminoethyl)-3-fluorophenyl)-8-hydroxy-6-methylthieno[2,3-c]quinolin-4(5H)-one hydrochloride] | 8.33 | 6.85 | 7.19 | 7.08 | 6.32 | 
NCCc1ccc(-c2c(O)cc(Cl)c3[nH]c(=O)c4sccc4c23)cc1F [Compound 1219, 9-(4-(2-aminoethyl)-3-fluorophenyl)-6-chloro-8-hydroxythieno[2,3-c]quinolin-4(5H)-one hydrochloride] | 8.26 | 6.77 | 7.00 | 6.74 | 6.06 | 
Cc1cc(O)c(-c2ccc(CCC#N)cc2)c2c1[nH]c(=O)c1sccc12 [Compound 1226, 3-(4-(8-hydroxy-6-methyl-4-oxo-4,5-dihydrothieno[2,3-c]quinolin-9-yl)phenyl)propanenitrile] | 7.04 | 6.31 | 6.23 | 5.92 | 5.89 | 
Cc1cc(O)c(-c2ccc(C(C)(C)CN)cc2)c2c1[nH]c(=O)c1sccc12 [Compound 1228, 9-(4-(1-amino-2-methylpropan-2-yl)phenyl)-8-hydroxy-6-methylthieno[2,3-c]quinolin-4(5H)-one hydrochloride] | 7.41 | 6.80 | 6.82 | 6.48 | 6.09 | 
NCC(c1ccc(-c2c(O)ccc3[nH]c(=O)c4sccc4c23)cc1)C1CCCC1 (stereo not drawn) [Compound 1236, 9-(4-(2-amino-1-cyclopentylethyl)phenyl)-8-hydroxythieno[2,3-c]quinolin-4(5H)-one] | 8.34 | 6.34 | 6.29 | 6.10 | 6.00 | 
COc1ccc2[nH]c(=O)c3sccc3c2c1-c1ccc(C(CN)C2CCCC2)cc1 (stereo not drawn) [Compound 1239, 9-(4-(2-amino-1-cyclopentylethyl)phenyl)-8-methoxythieno[2,3-c]quinolin-4(5H)-one hydrochloride] |  | 6.05 | 5.82 | 5.96 | 5.77 | 7.64
Cc1cc(O)c(-c2ccc(CC(C)N)cc2)c2c1[nH]c(=O)c1sccc12 (stereo not drawn) [Compound 1242, 9-(4-(2-aminopropyl)phenyl)-8-hydroxy-6-methylthieno[2,3-c]quinolin-4(5H)-one hydrochloride] |  | 6.92 | 6.96 | 6.82 | 6.38 | 7.43
CC(C)C(CN)c1ccc(-c2c(O)ccc3[nH]c(=O)c4sccc4c23)cc1 (stereo not drawn) [Compound 1252, 9-(4-(1-amino-3-methylbutan-2-yl)phenyl)-8-hydroxythieno[2,3-c]quinolin-4(5H)-one] | 8.85 | 6.80 | 6.60 | 6.68 | 6.38 | 
COc1ccc2[nH]c(=O)c3sccc3c2c1-c1ccc(C(CN)C(C)C)cc1 (stereo not drawn) [Compound 1253, 9-(4-(1-amino-3-methylbutan-2-yl)phenyl)-8-methoxythieno[2,3-c]quinolin-4(5H)-one hydrochloride] |  | 6.12 | 5.82 | 6.06 | 5.72 | 8.39
COc1cc(C)c2[nH]c(=O)c3sccc3c2c1-c1ccc(C(C)CN)c(F)c1 (stereo not drawn) [Compound 1273, 9-(4-(1-aminopropan-2-yl)-3-fluorophenyl)-8-methoxy-6-methylthieno[2,3-c]quinolin-4(5H)-one hydrochloride] |  | 7.15 | 7.14 | 6.77 | 6.70 | 7.40
Cc1cc(O)c(-c2ccc(C(CN)C(C)C)cc2)c2c1[nH]c(=O)c1sccc12 (stereo not drawn) [Compound 1274, 9-(4-(1-amino-3-methylbutan-2-yl)phenyl)-8-hydroxy-6-methylthieno[2,3-c]quinolin-4(5H)-one] | 7.74 | 7.35 | 7.18 | 7.01 | 6.74 | 
COc1cc(C)c2[nH]c(=O)c3sccc3c2c1-c1ccc(C(CN)C(C)C)c(F)c1 (stereo not drawn) [Compound 1283, 9-(4-(1-amino-3-methylbutan-2-yl)-3-fluorophenyl)-8-methoxy-6-methylthieno[2,3-c]quinolin-4(5H)-one hydrochloride] | 7.33 | 6.25 | 6.60 | 6.25 | 6.28 | 
CNCC(c1ccc(-c2c(O)cc(C)c3[nH]c(=O)c4sccc4c23)cc1)C(C)C (stereo not drawn) [Compound 1285, 8-hydroxy-6-methyl-9-(4-(3-methyl-1-(methylamino)butan-2-yl)phenyl)thieno[2,3-c]quinolin-4(5H)-one] | 7.30 | 6.64 | 6.96 | 6.68 | 6.55 | 
CNCC(C)c1ccc(-c2c(OC)cc(C)c3[nH]c(=O)c4sccc4c23)cc1F (stereo not drawn) [Compound 1286, 9-(3-fluoro-4-(1-(methylamino)propan-2-yl)phenyl)-8-methoxy-6-methylthieno[2,3-c]quinolin-4(5H)-one hydrochloride] |  | 7.02 | 7.03 | 6.66 | 6.66 | 7.37
Cc1cc(O)c(-c2ccc(C(CN)C(C)C)c(F)c2)c2c1[nH]c(=O)c1sccc12 (stereo not drawn) [Compound 1288, 9-(4-(1-amino-3-methylbutan-2-yl)-3-fluorophenyl)-8-hydroxy-6-methylthieno[2,3-c]quinolin-4(5H)-one] | 7.70 | 6.96 | 7.33 | 7.13 | 6.85 | 
CNCC(C)c1ccc(-c2c(O)cc(C)c3[nH]c(=O)c4sccc4c23)cc1F (stereo not drawn) [Compound 1293, 9-(3-fluoro-4-(1-(methylamino)propan-2-yl)phenyl)-8-hydroxy-6-methylthieno[2,3-c]quinolin-4(5H)-one] | 8.05 | 7.46 | 7.49 | 7.28 | 6.72 | 
CNCC(c1ccc(-c2c(O)cc(C)c3[nH]c(=O)c4sccc4c23)cc1F)C(C)C (stereo not drawn) [Compound 1294, 9-(3-fluoro-4-(3-methyl-1-(methylamino)butan-2-yl)phenyl)-8-hydroxy-6-methylthieno[2,3-c]quinolin-4(5H)-one] | 7.77 | 7.11 | 7.07 | 6.74 | 6.47 | 
